What was measured:
[1] = system: acidic vesicular organelles (lysosomes); assay: LysoTracker Red staining; type: cell-based, human; details: HeLa, H1299, and MDA-MB-231 cells, 5 μM, 72 hours
Source text: (§1) Western blotting was next used to evaluate proteins known to be involved in AP-1/2/3 complexes in lung (H1299) and breast (MDA-MB-231) cancer cells after treatment with Pac 1 or Pac 2. […] AP-1 and AP-2 mediate protein sorting in the endosome, trans-Golgi network, and plasma membrane. […] The impact of Pac 1 was then investigated on lysosome function by staining cells with the acidophilic dye LysoTracker Red.
LysoTracker red staining, confocal microscopy, and tem: The acidophilic dye LysoTracker Red stains lysosomes. Cancer cells (1×10^5 cells/well) were grown on two-well chamber slides (Becton Dickinson Labware, Bedford, MA) to 70% confluence and then treated with PKR siRNA or control siRNA. Forty-eight hours later (when cells had grown to 70-80% confluence), the medium was replaced with medium containing 75 nM LysoTracker Red. The cells were incubated with LysoTracker Red for 1 hour and then rinsed one time with 1 mL of PBS. The cells were kept in PBS for microscopic imaging.

[2] = system: MDA-MB-231 tumor xenografts; assay: Tumor xenograft growth in mice; type: in vivo; details: intravenous injection, over 4 weeks
Description: (§2) The effects of Pac 1 and Pac 2 were next examined on PKR protein expression in HeLa cells using Western blot analysis. […] No reduction in normal cell viability was observed after treatment with Pac 1 or Pac 2 (FIGS. 5F and G). […] Because most of the cancer cell lines that were tested were more sensitive to Pac 1 than to Pac 2, Pac 1 was further investigated.
(§3) Analysis of in vivo tumor growth after treatment with Pac 1: For in vivo tumor studies, MDA-MB-231 or H1299 cells (˜1×10^6) were resuspended in 0.1 mL of PBS and injected subcutaneously into the flanks of female severe combined immunodeficiency mice. When the resulting tumors reached 100-150 mm^3 in volume, the mice were stratified into groups of eight animals, with each group having approximately equal mean tumor volumes, and administered intravenous injection of Pac 1. The animals were weighed weekly, and their tumor diameters were measured twice weekly. When a tumor reached 2000 mm^3 or became necrotic, the animal was killed.

H1299 tumor xenografts = assay: Tumor xenograft growth in mice; type: in vivo
Description: as §2, §3

PI4K2A protein = assay: Thermal shift assay (differential scanning fluorimetry); type: binding
p-4EBP1 (T70), PP2A = assay: Western blot of p-4EBP1 and p-PP2Ac; type: cell-based, human; details: H1299 and A549 cells
PI4KIIb = PI4KIIb (Homo sapiens, UniProt Q8TCG2); assay: ADP-Glo kinase assay, high-throughput enzymatic screening (Reaction Biology); type: biochemical
Chain of PI4KIIb (Q8TCG2 whole entry): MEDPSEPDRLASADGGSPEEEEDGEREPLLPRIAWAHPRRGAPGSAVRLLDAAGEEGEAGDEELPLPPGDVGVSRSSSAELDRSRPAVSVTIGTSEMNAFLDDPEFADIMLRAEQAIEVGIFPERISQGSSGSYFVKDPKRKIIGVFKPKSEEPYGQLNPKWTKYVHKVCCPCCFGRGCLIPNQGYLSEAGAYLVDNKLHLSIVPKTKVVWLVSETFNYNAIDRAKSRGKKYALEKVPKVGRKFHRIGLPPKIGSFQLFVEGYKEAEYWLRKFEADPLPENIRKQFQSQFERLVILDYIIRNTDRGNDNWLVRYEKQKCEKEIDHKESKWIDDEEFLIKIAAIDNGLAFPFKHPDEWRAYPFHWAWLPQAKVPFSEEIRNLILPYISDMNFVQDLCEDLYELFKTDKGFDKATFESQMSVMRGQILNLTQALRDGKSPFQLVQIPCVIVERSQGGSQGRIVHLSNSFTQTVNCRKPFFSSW

[3] = system: normal cells (HBE, human mammary epithelial cells); assay: SRB cell viability assay, normal cells; type: cell-based; details: 72 hours after treatment, HBE and human mammary epithelial cells
Description: as §2
Cell viability assays: For SRB assays, cells (2-8×10^3/well in 100 μL of culture medium) were seeded in 96-well flat-bottomed plates and treated the next day with compounds at the indicated concentrations. After the indicated treatments, cells were fixed with trichloroacetic acid. The protein was stained with SRB, and the optical density at 570 nm was determined. Relative cell viability was calculated by setting the viability rate of the control cells (exposed only to dimethyl sulfoxide) at 100% and comparing the viability of the treated cells with that of the controls. The experiments were performed at least three times for each cell line. The viability of leukemia cell lines was determined by using a 3-(4,5-dimethylthiazol-2-yl)-2,5-diphenyltetrazolium bromide assay.
For the SRB assay, cells (2-8×10^3/well in 100 μL of culture medium) were seeded in 96-well flat-bottomed plates and treated the next day with compounds at the indicated concentrations. […] The cells were stained using SRB, and the optical density at 570 nm was determined. […]

Toxicity in mice = details: 50 mg/kg intravenously daily for 7 days
[4] = system: p-4EBP1, eEF2K, GSK3ab, IRS1 and Caveolin; assay: RPPA assay of 156 proteins; type: cell-based, human; details: H1299 and A549 cells, 72 hours; Pac 1 5 and 10 μM, Pac 2 10 μM
Description: The translation regulator eukaryotic […] 4EBP1 is phosphorylated by and is a substrate of PIM3 and PIM1. To further determine whether treatment with Pac 1 affects PIM3/1 downstream targets, the expression of 156 proteins in H1299 and A549 cells was analyzed after treatment with Pac 1 or Pac 2 using an RPPA assay. […] Others reported cross-talk of PP2A with PKR and 4EBP1 protein in cancer cells.

AP-1/2/3 complexes = assay: Western blot of AP-1, AP-2 and AP-3 complex-associated proteins; type: cell-based, human; details: H1299 and MDA-MB-231 cells
Source text: as §1

HeLa cells = assay: Microscopic analysis of morphologic changes; type: cell-based, human
Source text: Anticancer effects of PKR-targeting compounds depend on PKR expression status: To identify compounds that can target lysosomes in PKR-positive cells or MVBs/exosomes in PKR-negative cells, the 10,000-compound ChemBridge library was screened for compounds with different effects on the growth of HeLa and HeLaPKRkd cells. […] SRB assays were next used to determine cell viability after treatment with Pac 1 or Pac 2.
Identification of PKR-associated compounds and cytotoxicity studies: The library of 10,000 compounds was screened for those with different effects on the growth of HeLa and HeLaPKRkd cells. For this screening, both HeLa and HeLaPKRkd cells were seeded in 96-well plates in parallel and treated with each compound at a final concentration of 5 μg/mL. Cells treated with dimethyl sulfoxide (final concentration, 1%) were used as controls. Treated cells were observed under a microscope to detect morphologic changes, and their viability was determined using SRB assays 2 and 3 days after treatment. The compounds initially observed to have different effects on HeLa and HeLaPKRkd cells were subjected to two confirmatory screenings.

PIM1 = PIM1 (Homo sapiens, UniProt P11309); assay: High-throughput enzymatic screening; type: biochemical
Chain of PIM1 (P11309 whole entry): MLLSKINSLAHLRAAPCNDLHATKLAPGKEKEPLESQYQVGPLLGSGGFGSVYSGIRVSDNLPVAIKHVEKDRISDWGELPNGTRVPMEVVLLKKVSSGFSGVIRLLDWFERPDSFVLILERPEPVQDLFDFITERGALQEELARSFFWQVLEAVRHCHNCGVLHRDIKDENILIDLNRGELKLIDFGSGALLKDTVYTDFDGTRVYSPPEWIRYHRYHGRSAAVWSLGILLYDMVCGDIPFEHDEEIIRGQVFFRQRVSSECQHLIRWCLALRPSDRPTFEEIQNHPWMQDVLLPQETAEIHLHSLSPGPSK

O=C(N/N=C\c1c(O)ccc2ccccc12)c1cccc2cc[nH]c12 [Pac 1, N′—[(Z)-(2-Hydroxy-1-naphthyl)methylene]-1H-indole-7-carbohydrazide]
numbers of acidic vesicular organelles [1]: substantially decreased | growth of MDA-MB-231 tumor xenografts [2]: inhibited the growth | expression of PKR, p-PKR, and Ki-67 protein in tumors (H1299 tumor xenografts; H1299 tumors, immunohistochemical analysis): dramatically suppressed | growth of H1299 tumor xenografts (H1299 tumor xenografts; intravenous injection, over 4 weeks): inhibited the growth | binding to PI4K2A and change of melting temperature (PI4K2A protein): binds to PI4K2A and causes a decrease in the melting temperature | PP2A activity, indicated by dissociation of the p-PP2Ac complex (p-4EBP1 (T70), PP2A): Inactivation of PP2A was observed | expression of p-4EBP1 (T70) protein (p-4EBP1 (T70), PP2A; 72 hours after treatment): reduction of expression | inhibition of kinase activity (PI4KIIb): not other kinases | normal cell viability [3]: No reduction | blood chemistry: aspartate aminotransferase, SGOT, SGPT, alkaline phosphatase, creatine kinase, lactate dehydrogenase levels (Toxicity in mice): normal | histopathologic examination of major organs (Toxicity in mice; heart, lungs, liver, kidneys, pancreas, spleen): no significant changes in any major organs | levels of p-4EBP1 (S65, T37, and T70), eEF2K, GSK3ab, IRS1 and Caveolin [4]: significantly inhibited | PI4K2A, Lamp1, Lamp2, and AP-3δ expression (AP-1/2/3 complexes; 5 μM, 72 hours): significantly inhibited | expression of proteins associated with AP-1 (Rab7α, HSC70, AP-1γ) or AP-2 (AP-2α) (AP-1/2/3 complexes; 72 hours after treatment): No reduction of expression | growth of HeLa cells by microscopy (HeLa cells): suppressed the growth of HeLa cells more effectively than did treatment with Pac 2 | inhibition of PIM3/1 activity (PIM1): markedly inhibited

— patent US12465610B2, “Compounds and methods for the treatment of PKR-associated diseases” (Board of Regents, The University of Texas System, priority 2019, dated 2025)
